Assay [1] concerns the target T1, HDAC7 (Homo sapiens, UniProt Q8WUI4).
T1 construct: purchased BPS Bioscience 50067
Kind of assay: HDAC7 fluorogenic enzyme assay kit (BPS Bioscience), cell-free. The class given is biochemical. Conditions: 0.001-10 μmol/L inhibitor.

The test system of assay [2] is A10 cells. Put plainly: Western blot in A10 cells. The class given is cell-based, rat. The protocol: Cells were lysed in RIPA lysis buffer [150 mmol/L NaCl, 1% Triton X‐100, 1% sodium deoxycholate, 50 mmol/L Tris‐HCl pH 7.5, 2 mmol/L EDTA, 1 mmol/L PMSF, 1 mmol/L DTT, 1 mmol/L Na3VO4, and 5 mmol/L NaF] with protease inhibitor cocktail and sonicated. Approximately 30 μg of protein was separated by 10% sodium dodecyl sulphate‐polyacrylamide gel electrophoresis (SDS‐PAGE) and transferred to polyvinylidene difluoride (PVDF) membranes. After blocking with 5% skim milk for 1 hour, proteins were incubated with the primary antibodies overnight: anti‐cyclin D1 (1:1000), anti‐HDAC1 (1:1000), anti‐HDAC2 (1:1000), anti‐HDAC4 (1:1000) and anti‐HDAC5 (1:1000). As secondary antibodies, horse radish peroxidase‐linked antimouse or anti‐rabbit antibodies were used. Protein bands were visualized using Immobilon Western Detection Reagents (Millipore, Billerica, MA, USA). The Bio‐ID software was used to quantify protein expression (Vilber Lourmat, Eberhardzell, Germany).

The test system of assay [3] is cyclin D1, E2F3, p21, CaMKIIα mRNA. Put plainly: Cell cycle gene and CaMKIIα mRNA (qRT-PCR) in aortas of angiotensin II-infusion mice. The format is in vivo. Conditions: Ang II-infusion mice. The protocol: All animal procedures were approved by the Animal Experimental Committee of Chonnam National University Medical School (CNU IACUC‐H‐2014‐47) and carried out in accordance with the Guide for the Care and Use of Laboratory Animals (US National Institutes of Health Publications, 8th edition, 2011). CD‐1 mice (8 weeks old, 30‐35 g) were used in this study. Hypertension was induced by angiotensin II (Ang II, 1.3 mg/kg/day) infusion using 14‐day micro‐osmotic pumps (Alzet, model 1002; infusion rate of 0.25 μL/h) or saline alone. Ang II osmotic pumps were implanted subcutaneously after the injection of ketamine (120 mg/kg) and xylazine (6.2 mg/kg). One week after Ang II infusion, mice were administered LMK235 (1 or 3 mg/kg/day) or vehicle (dimethylsulphoxide [DMSO]) via intraperitoneal injection for 7 days. Mice were divided into three groups (n = 10‐12 per group): sham + vehicle, Ang II + vehicle, and Ang II + LMK235.
(§1) Total RNA from aortic tissue was isolated with TRIzol reagent (Invitrogen Life Technologies), and 1 μg of RNA was used for the reverse transcription reaction with TOPscript RT DryMIX (Enzynomics, South Korea). Quantification of mRNA levels was performed with the SYBR Green PCR kit (Enzynomics, South Korea).
On the technique in general: In qPCR the cycle at which signal appears reflects the starting amount.

The target of assay [4] is T2, HDAC1 (Homo sapiens, UniProt Q13547).
T2 construct: purchased BPS Bioscience 50061
T2 sequence (Q13547 whole entry): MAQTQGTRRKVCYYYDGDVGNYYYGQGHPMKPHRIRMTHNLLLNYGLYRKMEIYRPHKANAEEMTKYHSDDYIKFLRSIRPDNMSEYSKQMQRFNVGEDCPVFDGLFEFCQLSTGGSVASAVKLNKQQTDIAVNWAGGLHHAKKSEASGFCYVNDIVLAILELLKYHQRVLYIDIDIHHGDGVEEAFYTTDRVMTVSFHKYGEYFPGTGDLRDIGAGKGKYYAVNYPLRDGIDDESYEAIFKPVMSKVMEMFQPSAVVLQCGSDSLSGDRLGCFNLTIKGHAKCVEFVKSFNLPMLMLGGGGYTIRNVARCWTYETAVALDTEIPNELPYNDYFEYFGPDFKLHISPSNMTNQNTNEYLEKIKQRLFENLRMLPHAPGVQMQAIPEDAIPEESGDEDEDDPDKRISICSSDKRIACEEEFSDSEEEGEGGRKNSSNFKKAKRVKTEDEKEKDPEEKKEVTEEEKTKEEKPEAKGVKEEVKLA
Put plainly: HDAC1 fluorogenic enzyme assay kit (BPS Bioscience), cell-free. As to conditions: 0.001-10 μmol/L inhibitor. The class given is biochemical.

Assay [5] has as its system rat aortic rings. Kind of assay: Isometric tension: relaxation of U46619-induced contraction in rat aortic rings. Details: species or system Sprague‐Dawley rats. As to conditions: U46619 30 nmol/L, LMK235 cumulative 0.1-100 μmol/L. The source says: Male Sprague‐Dawley rats were purchased from Orient Bio (Gyeonggi‐do, South Korea). The thoracic aortas and mesenteric arteries were excised and immersed in an ice‐cold, modified Krebs solution composed of NaCl (115 mmol/L), KCl (4.7 mmol/L), CaCl2 (2.5 mmol/L), MgCl2 (1.2 mmol/L), NaHCO3 (25 mmol/L), KH2PO4 (1.2 mmol/L) and dextrose (10 mmol/L). Mesenteric arteries are secondary branches of the main mesenteric trunk. The aortas and mesenteric arteries were cleaned by removing adherent connective tissue, soaked in the Krebs‐bicarbonate solution and cut into four ring segments (3.5 mm in length), as described previously.14 Some rings were denuded of endothelium by gently rubbing the internal surface with the edge of the forceps. Each aortic ring was suspended in a water‐jacketed organ bath (6 mL) maintained at 37°C and aerated with a mixture of 95% O2 and 5% CO2. Each ring was connected to an isometric force transducer (Danish Myo Technology, Skejbyparken, Aarhus N, Denmark). Rings were stretched to an optimal resting tension of 2.0 g, which was maintained throughout the experiment. Each ring was equilibrated in the organ bath solution for 90 minutes before the experiment involving the contractile response to 50 mmol/L of KCl addition. […]

The test system of assay [6] is spontaneously hypertensive rats (SHRs). Kind of assay: Systolic BP (tail-cuff) in spontaneously hypertensive rats. The class given is in vivo. The protocol: (§2) For the essential hypertension animal experiment, SHRs were used. The SHR is the most used model animal model for hypertension and is generally regarded as an essential hypertension model.13 SHRs (6 weeks old, approximately 170 g) were purchased from Charles River (Yokohama, Japan). Rats were intraperitoneally administered LMK235 or vehicle every 3 days for 2 weeks (n = 4 per group).
Systolic BP was measured by the tail‐cuff method (Visitech Systems, BP‐2000). Animals (mice and rats) were trained to allow for the measuring of BP before administration of the drug. Animals were trained to enter the holder at the same time more than three times a week to measure BP. For angiotensin II‐mice, systolic BP was measured when the mice were awake the day before they are killed. For SHRs, systolic BP was measured daily for 2 weeks.

Assay [7] relates to AT1 and ACE1 mRNA. Put plainly: AT1 and ACE1 mRNA (qRT-PCR) in aortas of SHRs. The format is in vivo, rats. The method, then: as §2, §1
Assay [8] addresses T3, HDAC3 (Homo sapiens, UniProt O15379).
T3 construct: purchased BPS Bioscience 50063
Put plainly: HDAC3 fluorogenic enzyme assay kit (BPS Bioscience), cell-free. The format is biochemical. As to conditions: 0.001-10 μmol/L inhibitor.

The target of assay [9] is T4, HDAC9 (Homo sapiens, UniProt Q9UKV0).
T4 construct: purchased BPS Bioscience 50069
T4 sequence (Q9UKV0 whole entry): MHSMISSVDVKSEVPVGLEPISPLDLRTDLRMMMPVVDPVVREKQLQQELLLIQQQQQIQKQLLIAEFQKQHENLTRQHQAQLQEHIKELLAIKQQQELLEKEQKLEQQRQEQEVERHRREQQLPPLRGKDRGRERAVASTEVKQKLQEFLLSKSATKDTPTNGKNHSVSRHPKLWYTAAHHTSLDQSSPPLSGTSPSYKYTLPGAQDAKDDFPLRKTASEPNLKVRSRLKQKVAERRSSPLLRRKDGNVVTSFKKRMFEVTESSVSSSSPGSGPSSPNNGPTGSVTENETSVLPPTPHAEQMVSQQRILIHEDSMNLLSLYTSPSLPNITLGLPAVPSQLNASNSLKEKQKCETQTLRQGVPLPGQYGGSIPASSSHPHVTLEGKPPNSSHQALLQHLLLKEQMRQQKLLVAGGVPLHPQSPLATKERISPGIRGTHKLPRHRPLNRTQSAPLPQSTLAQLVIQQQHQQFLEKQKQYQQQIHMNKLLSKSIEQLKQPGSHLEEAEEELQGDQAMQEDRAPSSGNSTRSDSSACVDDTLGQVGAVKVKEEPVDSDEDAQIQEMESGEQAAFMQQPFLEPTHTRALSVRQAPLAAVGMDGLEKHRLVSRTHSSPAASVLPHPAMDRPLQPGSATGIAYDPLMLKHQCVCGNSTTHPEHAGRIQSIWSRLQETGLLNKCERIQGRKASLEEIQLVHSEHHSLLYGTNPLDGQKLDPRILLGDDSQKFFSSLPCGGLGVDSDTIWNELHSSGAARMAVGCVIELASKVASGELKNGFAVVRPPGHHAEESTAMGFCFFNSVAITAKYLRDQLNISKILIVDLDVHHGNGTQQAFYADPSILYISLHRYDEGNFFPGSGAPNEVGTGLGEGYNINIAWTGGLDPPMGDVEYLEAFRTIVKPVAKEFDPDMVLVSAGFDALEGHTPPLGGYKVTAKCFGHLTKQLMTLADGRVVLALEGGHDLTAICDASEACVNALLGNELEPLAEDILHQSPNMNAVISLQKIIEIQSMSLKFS
Put plainly: HDAC9 fluorogenic enzyme assay kit (BPS Bioscience), cell-free. The format is biochemical. As to conditions: 0.001-10 μmol/L inhibitor.

The target in assay [10] is T5, HDAC2 (Homo sapiens, UniProt Q92769).
T5 construct: purchased BPS Bioscience 50062
T5 sequence (Q92769 whole entry): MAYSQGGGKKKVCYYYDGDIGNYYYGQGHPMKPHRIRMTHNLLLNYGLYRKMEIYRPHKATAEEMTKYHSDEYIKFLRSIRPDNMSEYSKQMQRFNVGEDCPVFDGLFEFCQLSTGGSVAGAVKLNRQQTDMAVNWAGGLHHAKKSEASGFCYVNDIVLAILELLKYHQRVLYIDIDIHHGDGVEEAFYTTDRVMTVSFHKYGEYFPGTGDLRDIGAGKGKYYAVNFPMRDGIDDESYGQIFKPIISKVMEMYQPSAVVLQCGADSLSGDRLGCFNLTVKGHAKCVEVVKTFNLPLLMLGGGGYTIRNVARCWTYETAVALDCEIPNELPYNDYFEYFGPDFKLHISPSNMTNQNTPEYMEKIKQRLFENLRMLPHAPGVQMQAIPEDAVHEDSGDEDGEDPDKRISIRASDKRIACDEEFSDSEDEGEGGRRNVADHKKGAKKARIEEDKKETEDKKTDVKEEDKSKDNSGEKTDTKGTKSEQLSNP
Put plainly: HDAC2 fluorogenic enzyme assay kit (BPS Bioscience), cell-free. The format is biochemical. Conditions: 0.001-10 μmol/L inhibitor.

T3 sequence (O15379 whole entry): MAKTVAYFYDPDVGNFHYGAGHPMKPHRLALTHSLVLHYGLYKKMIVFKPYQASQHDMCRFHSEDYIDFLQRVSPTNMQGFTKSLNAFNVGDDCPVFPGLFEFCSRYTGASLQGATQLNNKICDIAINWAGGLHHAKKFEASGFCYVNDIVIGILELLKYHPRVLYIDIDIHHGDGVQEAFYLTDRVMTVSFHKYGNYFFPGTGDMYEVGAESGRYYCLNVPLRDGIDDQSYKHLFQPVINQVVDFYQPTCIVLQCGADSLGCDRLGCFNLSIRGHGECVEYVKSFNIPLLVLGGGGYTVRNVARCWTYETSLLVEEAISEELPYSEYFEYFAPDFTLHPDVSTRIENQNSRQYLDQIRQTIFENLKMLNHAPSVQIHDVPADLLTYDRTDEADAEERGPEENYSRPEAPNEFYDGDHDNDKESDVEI
T3 sequence (Q9Y618 395-489 partner limits assumed): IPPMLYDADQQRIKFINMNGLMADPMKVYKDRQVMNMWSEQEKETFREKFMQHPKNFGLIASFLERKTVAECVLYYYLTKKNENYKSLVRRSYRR
T1 sequence (Q8WUI4 whole entry): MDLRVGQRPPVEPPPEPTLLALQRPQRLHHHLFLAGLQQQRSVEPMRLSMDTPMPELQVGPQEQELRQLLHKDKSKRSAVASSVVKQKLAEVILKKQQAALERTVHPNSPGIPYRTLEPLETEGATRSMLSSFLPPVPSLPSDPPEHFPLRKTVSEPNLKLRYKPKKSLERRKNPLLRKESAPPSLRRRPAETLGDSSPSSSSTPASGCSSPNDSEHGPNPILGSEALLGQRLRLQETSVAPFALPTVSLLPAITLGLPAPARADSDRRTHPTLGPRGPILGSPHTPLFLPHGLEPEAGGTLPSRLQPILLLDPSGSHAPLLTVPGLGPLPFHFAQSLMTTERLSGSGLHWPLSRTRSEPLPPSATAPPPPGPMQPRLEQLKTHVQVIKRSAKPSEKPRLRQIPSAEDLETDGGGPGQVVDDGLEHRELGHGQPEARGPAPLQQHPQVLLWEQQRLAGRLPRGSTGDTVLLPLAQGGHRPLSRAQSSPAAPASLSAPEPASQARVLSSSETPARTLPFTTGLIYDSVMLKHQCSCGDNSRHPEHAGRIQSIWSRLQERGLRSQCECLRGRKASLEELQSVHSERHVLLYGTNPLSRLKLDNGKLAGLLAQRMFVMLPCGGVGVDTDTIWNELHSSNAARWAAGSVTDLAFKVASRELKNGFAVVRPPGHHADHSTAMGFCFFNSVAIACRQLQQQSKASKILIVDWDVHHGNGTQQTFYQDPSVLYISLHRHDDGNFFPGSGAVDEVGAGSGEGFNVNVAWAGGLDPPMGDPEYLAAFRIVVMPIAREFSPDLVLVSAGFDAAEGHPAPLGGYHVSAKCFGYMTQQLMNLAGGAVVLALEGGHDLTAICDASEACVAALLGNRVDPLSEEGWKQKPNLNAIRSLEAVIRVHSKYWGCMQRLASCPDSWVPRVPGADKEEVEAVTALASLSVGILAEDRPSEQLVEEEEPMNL

For the compound `Cc1cc(C)cc(C(=O)NOCCCCCC(=O)NO)c1` [LMK235], the half-maximal inhibitory concentration (IC50) in assay [1] was over 20 µM; in assay [4], 0.03 µM; in assay [8] it was 0.037 µM; in assay [9], over 20 µM; in assay [10], 0.055 µM. For the same compound, the “protein expression of class I and IIa/b HDAC” value in assay [2] (A10 cells without CaMKIIα transfection, 18 h) is “reduced protein expression”. Besides, the “CaMKIIα-induced cyclin D1 protein” value in assay [2] (CaMKIIα-transfected A10 cells) is “reduced”. The “HDAC4 and HDAC5 proteins” value in assay [2] (CaMKIIα-transfected A10 cells) was “significantly reduced”. For the same compound, in assay [2] (CaMKIIα-transfected A10 cells, 18 h), the “protein expression of HDAC1 and HDAC2” value is “significantly reduced”. The “CaMKIIα mRNA levels in aorta” value in [3] is on record as “significantly reduced”. For the same compound, the “E2F3 mRNA levels in aorta” value in assay [3] is recorded as “significantly suppressed”. Moreover, the “cyclin D1 mRNA levels in aorta” value in assay [3] is on record as “significantly suppressed”. Besides, in assay [3], the “p21 transcript levels in aorta” value is reported as “restored the repressed p21 expression”. Also, the U46619-induced vasoconstriction entry in assay [5] (endothelium-denuded aortic rings) was “inhibited”; in assay [5] (endothelium-intact aortic rings), “dose dependently reduced”. The hypertension lowering effect entry in assay [6] (1 mg/kg/day (data not shown)) is “did not exhibit a hypertension lowering effect”. The “duration of BP lowering effect” value in assay [6] (3 mg/kg i.p. every 3 days) was 2 days. In addition, the “systolic BP” value is listed as “significantly lowered” in [6] (3 mg/kg i.p. every 3 days, 2 days after treatment) and “restored to a comparable level” in assay [6] (3 mg/kg i.p. every 3 days, 3 days after administration). Moreover, the “AT1 mRNA levels in aorta” value in [7] is reported as “not affected”.

The IC50 is the concentration at which inhibition is half-maximal.
